In PMC10267100 (Communications Biology, 2023):

How the values were obtained:
[1] = test system: WT M1 parental cells (M1 murine myeloid leukemic cell line); assay: IL-6 dose response (differentiation) in WT M1 cells; format: cell-based; details: IL-6 dose response, Fig. 1a, approximate
Source text: (§1) The M1 murine myeloid leukemic cell line responds in a dose-dependent manner to IL-6 stimulation. Culturing M1 cells in IL-6 results in differentiation from monocytic-like progenitor cells into terminally differentiated macrophages that undergo cell death. […] This was in contrast to five other phosphatases that were similarly overexpressed. Using an Incucyte growth assay, the growth of wild-type M1 cells was compared to that of M1 cells overexpressing HALO-PTP1B both with and without IL-6 (Fig. 1b). […] As expected, there was no difference in the growth rate of any of these cell lines in the absence of IL-6. […] To confirm that the activation loop of the JAKs are indeed a target of PTP1B, dephosphorylation assays with activated recombinant JAK kinase domains were performed in vitro. All four members of the JAK family were dephosphorylated in a PTP1B-dependent manner although JAK1 was dephosphorylated to a lesser extent than others (Fig. 1c).
Fig. 1 PTP1B dephosphorylates the JAK activation loops. a IL-6 dose response curves for phosphatases overexpressed in the M1 cell line. […] (Top) Immunoblot (IB) probing for phosphorylated-JAK (P-JAK1 antibody) activation loop. (Bottom) Ponceau stained membrane to confirm equal input of proteins on gel. Data are representative of 3 independent experiments. d Overexpression of FLAG-JAK and HALO-PTP1B in HEK293T cells. […]

[2] = test system: M1 cells overexpressing PTP1B; assay: IL-6 dose response (differentiation) in M1 cells overexpressing PTP1B; format: cell-based, murine; details: IL-6 dose response, Fig. 1a, approximate
Source text: as §1, with “1c). […]” for “1c).”
Murine PTP1B with an N-terminal Halo tag was sub-cloned into the Tet-On pfTRE3G expression vector for generation of a stable doxycycline-inducible Halo-mPTP1B expressing HEK293T cell line. […] 24 h post-transfection, cells were lysed in sample reducing buffer and analysed by SDS-PAGE and immunoblot as above (dephosphorylation assays). […]

With “IL-6: cytokine used to stimulate M1 cells” the “EC50 of IL-6 (induction of differentiation)” value [1] was about 2 ng/mL and the “EC50 of IL-6 (induction of differentiation)” value [2] was “approximately 10 ng/mL”.
